# Results from ChEMBL document CHEMBL5053549, “Discovery of Potent and Novel Dual PARP/BRD4 Inhibitors for Efficient Treatment of Pancreatic Cancer” (J Med Chem, 2021).
# The source made the active and inactive calls. The calls are words filed in the database; no cut-off is given here.
# Tests used:
# CFPAC-1 = test: Antiproliferative activity against human CFPAC-1 cells assessed as reduction in cell viability after 4 days by MTT assay; format: functional, cell-based; conditions: CFPAC-1, 96 h, read-out: IC50
# CAPAN-1 = test: Antiproliferative activity against human CAPAN-1 cells assessed as reduction in cell viability after 4 days by MTT assay; format: functional, cell-based; conditions: CAPAN-1, 96 h
# SW1990 [1] = test: Antiproliferative activity against human SW1990 cells assessed as reduction in cell viability after 4 days by MTT assay; format: functional, cell-based; conditions: SW1990, 96 h
# Mus musculus [2] = test: Inhibition of homologous recombinant repair in human SW1990 cells xenografted in BALB/c mouse assessed as reduction in c-Myc expression at 45 mg/kg, ip after 4 days by immunohistochemical analysis; format: functional, organism-based; conditions: time 4.0 day
# [3] = target: T1, Poly [ADP-ribose] polymerase 1 (Homo sapiens, UniProt P09874); test: Inhibition of PARP1 (unknown origin) incubated for 45 mins in presence of biotinylated-NAD+ by microplate reader analysis
# [4] = target: T2, Bromodomain-containing protein 4 (Homo sapiens, UniProt O60885); test: Inhibition of recombinant BRD4 (unknown origin) incubated for 120 mins by TR-FRET assay
# [5] = target: Poly [ADP-ribose] polymerase 2 (Homo sapiens, UniProt Q9UGN5); test: Inhibition of recombinant PARP2 (unknown origin) incubated for 45 mins in presence of biotinylated-NAD+ by ELISA
# [6] = target: Serine/threonine-protein kinase PLK1 (Homo sapiens, UniProt P53350); test: Inhibition of recombinant PLK1 (unknown origin) […] measured after 40 mins by ADP-glo luminescence kinase assay
# MDA-MB-231 = test: Antiproliferative activity against human MDA-MB-231 cells assessed as reduction in cell viability after 7 days; format: functional, cell-based; conditions: MDA-MB-231, 168 h
# Mus musculus [7] = test: Inhibition of homologous recombinant repair in human SW1990 cells xenografted in BALB/c mouse assessed as reduction in BRCA1 expression at 45 mg/kg, ip after 4 days by immunohistochemical analysis; format: functional, organism-based; conditions: time 4.0 day
# [8] = target: T2, Bromodomain-containing protein 4; test: Inhibition of recombinant BRD4 BD1 (unknown origin) incubated for 120 mins by TR-FRET assay
# [9] = target: Histone acetyltransferase p300 (Homo sapiens, UniProt Q09472); test: Inhibition of P300 (unknown orign) using acetyl-CoA as substrate preincubated for 30 mins followed by substrate addition measured after 1 hr by microplate reader analysis
# [10] = target: T1, Poly [ADP-ribose] polymerase 1; test: Inhibition of PARP1 expression in human SW1990 cells at 1 uM after 4 days by Western blot analysis; format: cell-based; conditions: time 4.0 day
# [11] = target: T1, Poly [ADP-ribose] polymerase 1; test: Inhibition of PARP1 expression in human SW1990 cells at 1 uM after 4 days by Q-PCR analysis; format: cell-based; conditions: time 4.0 day
# Mus musculus [12] = test: Toxicity in BALB/c mouse xenografted with human SW1990 cells assessed as lung damage at 45 mg/kg, ip administered for 28 consecutive days by H and E staining based […] microscopic analysis; format: organism-based; conditions: in vivo, 672 h, time 28 day
# Mus musculus [13] = test: Toxicity in BALB/c mouse xenografted with human SW1990 cells assessed as liver damage at 45 mg/kg, ip administered for 28 consecutive days by H and E staining based […] microscopic analysis; format: organism-based; conditions: in vivo, 672 h, time 28 day
# Mus musculus [14] = test: In vivo inhibition of PARP1 expression in human […] cells xenografted in BALB/c mouse at 45 mg/kg, ip administered for 28 consecutive days by Western blot analysis; format: functional, organism-based; conditions: time 28.0 day
# Mus musculus [15] = test: Effect on cell cycle progression in human SW1990 cells xenografted in BALB/c mouse assessed as reduction in CDK6 expression at 45 mg/kg, ip after 4 days by Q-PCR analysis; format: functional, organism-based; conditions: time 4.0 day
# SW1990 [16] = test: Effect on cell cycle progression in human SW1990 cells assessed as reduction in CDK6 expression at 1 to 2 uM after 4 days by Q-PCR analysis; format: functional, cell-based; conditions: dose 1-2 µM, time 4.0 day
# SW1990 [17] = test: Effect on cell cycle progression in human SW1990 cells assessed as reduction in E2F2 expression at 1 to 2 uM after 4 days by Western blot analysis; format: functional, cell-based; conditions: dose 1-2 µM, time 4.0 day
# SW1990 [18] = test: Induction of autophagy in human SW1990 cells xenografted in BALB/c mouse assessed as increase in ATG5 expression at 45 mg/kg, ip after 4 days by Western blot analysis; format: functional, organism-based; conditions: time 4.0 day
# [19] = target: T1, Poly [ADP-ribose] polymerase 1; test: Inhibition of PARP1 in human SW1990 cells assessed as reversal of Olaparib-induced PARP1 accumulation in nucleus at 1 uM after 4 days by Western blot analysis; format: cell-based; conditions: time 4.0 day
# Mus musculus [20] = test: Toxicity in BALB/c mouse xenografted with human SW1990 cells assessed as kidney damage at 15 mg/kg, ip administered for 28 consecutive days by H and E staining based […] microscopic analysis; format: organism-based; conditions: in vivo, 672 h, time 28 day
# Mus musculus [21] = test: Toxicity in BALB/c mouse xenografted with human SW1990 cells assessed as heart damage at 15 mg/kg, ip administered for 28 consecutive days by H and E staining based […] microscopic analysis; format: organism-based; conditions: in vivo, 672 h, time 28 day
# Mus musculus [22] = test: Toxicity in BALB/c mouse xenografted with human SW1990 cells assessed as liver damage at 15 mg/kg, ip administered for 28 consecutive days in presence of 45 mg/kg Olaparib; format: organism-based; conditions: in vivo, 672 h, time 28 day
# Mus musculus [23] = test: In vivo inhibition of BRD4 expression in human SW1900 cells xenografted in BALB/c mouse assessed as reversal of Olaparib-induced BRD4 accumulation at 15 mg/kg, ip administered for 28 consecutive days in presence of 45 mg/kg Olaparib by immunohistochemical analysis; format: functional, organism-based; conditions: time 28.0 day
# SW1990 [24] = test: Induction of cell cycle arrest in human SW1990 cells assessed as accumulation of cells at G2/M phase at 4 uM incubated for 4 days by propidium iodide staining based flow cytometry (reference value: 5.89%); format: functional; conditions: time 4 day
# SW1990 [25] = test: Induction of cell cycle arrest in human SW1990 cells assessed as accumulation of cells at G0/G1 phase at 1 uM incubated for 4 days in presence of 3 uM Olaparib by propidium iodide staining based flow cytometry (reference value: 64.79%); format: functional; conditions: time 4 day
# SW1990 [26] = test: Effect on cell cycle progression in human SW1990 cells assessed as reduction in Olaparib-induced CDK6 expression at 1 uM after 4 days in presence of Olaparib by Western blot analysis; format: functional, cell-based; conditions: time 4.0 day
# SW1990 [27] = test: Effect on cell cycle progression in human SW1990 cells assessed as reduction in Olaparib-induced CCND1 expression at 1 uM after 4 days in presence of Olaparib by Western blot analysis; format: functional, cell-based; conditions: time 4.0 day
# SW1990 [28] = test: Effect on cell cycle progression in human SW1990 cells assessed as reduction in Olaparib-induced CCND1 expression at 1 uM after 4 days in presence of Olaparib by Q-PCR analysis; format: functional, cell-based; conditions: time 4.0 day
# SW1990 [29] = test: Induction of DNA damage in human SW1990 cells assessed as tail DNA at 4 uM incubated for 4 days by comet assay; format: functional, cell-based; conditions: time 4.0 day
# SW1990 [30] = test: Induction of DNA damage in human SW1990 cells assessed as tail DNA at 1 uM incubated for 4 days in presence of 3 uM Olaparib by comet assay; format: functional, cell-based; conditions: time 4.0 day
# SW1990 [31] = test: Inhibition of homologous recombinant repair in human SW1990 cells assessed as increase in […] expression at 4 uM after 4 days by Western blot analysis; format: functional, cell-based; conditions: time 4.0 day
# T1 sequence (P09874 whole entry): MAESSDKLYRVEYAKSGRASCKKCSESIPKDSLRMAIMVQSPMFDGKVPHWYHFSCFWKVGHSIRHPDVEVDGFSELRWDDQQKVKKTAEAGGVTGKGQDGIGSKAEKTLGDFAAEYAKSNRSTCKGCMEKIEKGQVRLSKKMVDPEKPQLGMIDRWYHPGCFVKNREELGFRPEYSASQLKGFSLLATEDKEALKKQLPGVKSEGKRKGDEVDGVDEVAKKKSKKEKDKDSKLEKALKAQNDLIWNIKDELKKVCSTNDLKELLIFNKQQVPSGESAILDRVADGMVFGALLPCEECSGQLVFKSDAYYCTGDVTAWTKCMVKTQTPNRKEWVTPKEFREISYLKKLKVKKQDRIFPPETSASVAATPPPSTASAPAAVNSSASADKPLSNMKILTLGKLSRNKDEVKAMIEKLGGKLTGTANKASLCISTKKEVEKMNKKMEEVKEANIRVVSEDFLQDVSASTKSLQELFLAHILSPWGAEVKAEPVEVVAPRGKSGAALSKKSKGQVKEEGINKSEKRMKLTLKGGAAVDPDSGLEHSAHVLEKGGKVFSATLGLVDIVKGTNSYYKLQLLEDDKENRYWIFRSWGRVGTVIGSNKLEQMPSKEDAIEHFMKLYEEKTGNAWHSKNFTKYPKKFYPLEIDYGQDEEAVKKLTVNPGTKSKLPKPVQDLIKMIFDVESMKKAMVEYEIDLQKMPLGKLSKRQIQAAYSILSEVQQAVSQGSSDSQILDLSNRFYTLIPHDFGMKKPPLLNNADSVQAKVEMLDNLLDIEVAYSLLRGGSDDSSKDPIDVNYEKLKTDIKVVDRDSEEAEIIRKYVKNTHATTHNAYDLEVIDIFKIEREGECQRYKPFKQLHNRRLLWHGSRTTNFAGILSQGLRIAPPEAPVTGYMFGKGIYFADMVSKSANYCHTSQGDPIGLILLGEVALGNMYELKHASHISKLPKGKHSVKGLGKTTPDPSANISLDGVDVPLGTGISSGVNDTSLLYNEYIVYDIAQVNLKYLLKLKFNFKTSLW
# Histone acetyltransferase p300, sequence (Q09472 whole entry): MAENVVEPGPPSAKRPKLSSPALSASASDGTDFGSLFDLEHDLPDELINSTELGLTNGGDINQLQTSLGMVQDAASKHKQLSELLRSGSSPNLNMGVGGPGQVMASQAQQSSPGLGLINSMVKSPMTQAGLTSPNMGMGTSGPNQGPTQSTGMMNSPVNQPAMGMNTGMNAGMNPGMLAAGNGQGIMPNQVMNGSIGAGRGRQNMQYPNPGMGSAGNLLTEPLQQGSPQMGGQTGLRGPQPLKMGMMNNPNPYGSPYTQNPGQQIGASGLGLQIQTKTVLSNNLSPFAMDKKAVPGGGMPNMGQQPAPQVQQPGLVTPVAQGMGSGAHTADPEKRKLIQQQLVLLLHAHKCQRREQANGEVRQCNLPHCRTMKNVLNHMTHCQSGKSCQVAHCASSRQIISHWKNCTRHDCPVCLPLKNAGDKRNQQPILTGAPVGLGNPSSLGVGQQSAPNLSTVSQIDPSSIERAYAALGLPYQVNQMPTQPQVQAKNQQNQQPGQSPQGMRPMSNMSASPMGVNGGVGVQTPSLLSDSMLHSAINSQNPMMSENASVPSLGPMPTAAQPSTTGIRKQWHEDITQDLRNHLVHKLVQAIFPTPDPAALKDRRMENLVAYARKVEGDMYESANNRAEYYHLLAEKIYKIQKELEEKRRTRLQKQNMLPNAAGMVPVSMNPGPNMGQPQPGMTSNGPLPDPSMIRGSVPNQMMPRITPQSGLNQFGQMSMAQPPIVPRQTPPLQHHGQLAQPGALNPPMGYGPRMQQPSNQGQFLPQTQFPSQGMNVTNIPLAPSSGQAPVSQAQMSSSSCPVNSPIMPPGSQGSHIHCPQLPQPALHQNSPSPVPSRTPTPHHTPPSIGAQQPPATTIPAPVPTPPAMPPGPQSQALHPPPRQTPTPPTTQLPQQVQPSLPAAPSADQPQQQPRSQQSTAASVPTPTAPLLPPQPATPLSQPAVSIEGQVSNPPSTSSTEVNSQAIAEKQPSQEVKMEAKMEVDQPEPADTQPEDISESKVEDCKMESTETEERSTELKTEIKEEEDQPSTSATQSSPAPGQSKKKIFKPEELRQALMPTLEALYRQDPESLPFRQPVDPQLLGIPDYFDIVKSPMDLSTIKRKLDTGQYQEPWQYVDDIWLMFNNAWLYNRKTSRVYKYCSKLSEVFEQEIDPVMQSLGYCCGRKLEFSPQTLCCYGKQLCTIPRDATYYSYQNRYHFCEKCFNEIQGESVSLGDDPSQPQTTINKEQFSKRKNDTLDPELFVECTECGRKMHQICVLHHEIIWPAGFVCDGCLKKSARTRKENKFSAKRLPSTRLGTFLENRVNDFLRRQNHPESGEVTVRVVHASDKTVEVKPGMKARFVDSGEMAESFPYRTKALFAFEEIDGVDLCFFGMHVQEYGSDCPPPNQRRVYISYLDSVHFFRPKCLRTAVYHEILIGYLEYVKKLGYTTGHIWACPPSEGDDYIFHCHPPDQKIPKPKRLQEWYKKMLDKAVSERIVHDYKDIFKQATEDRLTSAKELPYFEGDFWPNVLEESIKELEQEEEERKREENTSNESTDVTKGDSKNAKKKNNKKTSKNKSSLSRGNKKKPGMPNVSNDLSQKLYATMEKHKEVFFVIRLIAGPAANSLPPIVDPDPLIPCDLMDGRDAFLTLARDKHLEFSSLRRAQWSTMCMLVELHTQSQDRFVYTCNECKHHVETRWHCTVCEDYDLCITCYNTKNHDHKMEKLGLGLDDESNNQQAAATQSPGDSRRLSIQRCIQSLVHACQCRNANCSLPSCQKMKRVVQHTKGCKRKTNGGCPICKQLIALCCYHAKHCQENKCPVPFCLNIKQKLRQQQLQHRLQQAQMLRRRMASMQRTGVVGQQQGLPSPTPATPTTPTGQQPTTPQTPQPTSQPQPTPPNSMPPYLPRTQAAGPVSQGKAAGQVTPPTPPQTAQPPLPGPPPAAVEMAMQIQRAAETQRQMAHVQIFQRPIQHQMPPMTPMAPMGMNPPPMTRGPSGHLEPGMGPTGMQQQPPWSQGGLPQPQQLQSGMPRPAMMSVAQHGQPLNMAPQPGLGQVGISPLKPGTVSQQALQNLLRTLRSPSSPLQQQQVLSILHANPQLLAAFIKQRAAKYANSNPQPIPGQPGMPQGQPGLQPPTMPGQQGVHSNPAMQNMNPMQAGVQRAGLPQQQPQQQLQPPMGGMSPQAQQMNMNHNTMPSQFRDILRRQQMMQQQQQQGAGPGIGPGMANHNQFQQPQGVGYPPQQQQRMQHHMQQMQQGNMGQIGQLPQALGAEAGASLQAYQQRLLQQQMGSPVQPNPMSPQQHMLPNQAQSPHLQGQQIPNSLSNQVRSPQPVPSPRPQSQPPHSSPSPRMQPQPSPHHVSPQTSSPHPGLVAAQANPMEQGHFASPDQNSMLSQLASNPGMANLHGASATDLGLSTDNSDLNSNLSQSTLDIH
# Poly [ADP-ribose] polymerase 2, sequence (Q9UGN5 whole entry): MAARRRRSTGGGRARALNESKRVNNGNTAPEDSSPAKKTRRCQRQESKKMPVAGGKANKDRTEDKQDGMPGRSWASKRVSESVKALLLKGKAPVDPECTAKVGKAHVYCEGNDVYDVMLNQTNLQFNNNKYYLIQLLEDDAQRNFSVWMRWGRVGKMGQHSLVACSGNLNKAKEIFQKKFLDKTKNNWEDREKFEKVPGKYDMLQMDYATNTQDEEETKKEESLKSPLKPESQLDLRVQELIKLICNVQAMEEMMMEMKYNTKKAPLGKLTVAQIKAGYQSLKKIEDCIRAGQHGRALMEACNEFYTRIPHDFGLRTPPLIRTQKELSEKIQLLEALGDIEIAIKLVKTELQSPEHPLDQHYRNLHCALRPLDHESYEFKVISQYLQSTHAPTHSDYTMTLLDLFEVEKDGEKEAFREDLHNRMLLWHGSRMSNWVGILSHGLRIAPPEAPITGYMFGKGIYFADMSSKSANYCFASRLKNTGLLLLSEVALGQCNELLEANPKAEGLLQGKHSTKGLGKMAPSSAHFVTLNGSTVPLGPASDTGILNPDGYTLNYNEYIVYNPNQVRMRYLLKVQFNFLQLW
# Serine/threonine-protein kinase PLK1, sequence (P53350 whole entry): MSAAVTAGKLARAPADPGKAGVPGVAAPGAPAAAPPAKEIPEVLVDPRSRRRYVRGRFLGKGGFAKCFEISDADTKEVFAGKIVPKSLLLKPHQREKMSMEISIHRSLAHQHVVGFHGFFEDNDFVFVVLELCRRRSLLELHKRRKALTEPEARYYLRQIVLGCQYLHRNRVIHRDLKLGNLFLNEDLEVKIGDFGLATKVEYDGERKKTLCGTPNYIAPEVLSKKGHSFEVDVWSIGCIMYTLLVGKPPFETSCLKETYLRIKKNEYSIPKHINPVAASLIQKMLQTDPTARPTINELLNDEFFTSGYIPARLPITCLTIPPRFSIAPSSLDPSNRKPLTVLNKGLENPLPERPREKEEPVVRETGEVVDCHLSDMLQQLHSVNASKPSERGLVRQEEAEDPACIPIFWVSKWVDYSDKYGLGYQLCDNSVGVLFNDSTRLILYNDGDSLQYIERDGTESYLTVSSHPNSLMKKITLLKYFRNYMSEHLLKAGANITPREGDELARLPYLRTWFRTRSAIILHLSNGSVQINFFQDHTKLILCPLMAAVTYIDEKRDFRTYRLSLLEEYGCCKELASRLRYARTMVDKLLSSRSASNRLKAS
structure (smiles),measurement,setting,value
CC[C@@H]1C(=O)N(C)c2cnc(N(C)c3ccc(-c4nc5c(C(N)=O)cccc5[nH]4)cc3OC)nc2N1C1CCCC1,IC50,CFPAC-1,1160 nM
same,IC50,CAPAN-1,1560 nM
same,IC50,SW1990 [1],980 nM
same,inhibition,Mus musculus [2],Active
same,IC50,[3],13 nM
same,IC50,[4],101 nM
same,IC50,[5],4.7 nM
same,IC50,[6],2030 nM
same,IC50,MDA-MB-231,340 nM
same,inhibition,Mus musculus [7],Active
same,IC50,[8],75 nM
same,IC50,[9],59400 nM
same,inhibition,[10],Active
same,inhibition,[11],Active
same,Activity,Mus musculus [12],Non-Toxic
same,Activity,Mus musculus [13],Non-Toxic
same,Activity,Mus musculus [14],Active
same,Activity,Mus musculus [15],Active
same,Activity,SW1990 [16],Active
same,Activity,SW1990 [17],Active
same,Activity,SW1990 [18],Active
Cc1sc2c(c1C)C(c1ccc(Cl)cc1)=N[C@@H](CC(=O)OC(C)(C)C)c1nnc(C)n1-2,IC50,CFPAC-1,1560 nM
same,IC50,CAPAN-1,2440 nM
same,IC50,SW1990 [1],3740 nM
same,IC50,MDA-MB-231,640 nM
same,IC50,[9],19400 nM
same,inhibition,[19],Active
same,Activity,Mus musculus [20],Non-Toxic
same,Activity,Mus musculus [21],Non-Toxic
same,Activity,Mus musculus [22],Non-Toxic
same,Activity,Mus musculus [23],Active
same,Activity,SW1990 [24],5.51%
same,Activity,SW1990 [25],71.53%
same,Activity,SW1990 [26],Active
same,Activity,SW1990 [27],Active
same,Activity,SW1990 [28],Active
same,Activity,SW1990 [29],Active
same,Activity,SW1990 [30],Active
same,inhibition,SW1990 [31],Active
